Drawing on US8691838B2, “Heterocycles as protein kinase inhibitors” (Amgen Inc., priority 2008, dated 2014), this text covers Ki for nine compounds.

The target in the experiment is c-Met (Homo sapiens, UniProt P08581). The experiment is described as follows: c-Met receptor assay (HTRF kinase assay with GST-cMet (P) enzyme, gastrin substrate). A general note: In TR-FRET formats the signal depends on donor and acceptor labels being close together.
c-Met, sequence (P08581 1058-1365): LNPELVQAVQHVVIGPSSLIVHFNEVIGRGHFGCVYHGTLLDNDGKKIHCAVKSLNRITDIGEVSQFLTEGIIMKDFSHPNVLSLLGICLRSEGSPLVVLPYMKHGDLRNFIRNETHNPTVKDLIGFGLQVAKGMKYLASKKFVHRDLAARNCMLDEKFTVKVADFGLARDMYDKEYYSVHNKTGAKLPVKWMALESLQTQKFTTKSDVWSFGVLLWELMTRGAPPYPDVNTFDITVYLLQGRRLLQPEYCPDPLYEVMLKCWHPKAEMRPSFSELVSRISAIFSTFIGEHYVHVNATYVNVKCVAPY
Experimental: A Kinase reaction Buffer was prepared as follows: 60 mM HEPES pH 7.4; 50 mM NaCl; 20 mM MgCl2; 5 mM MnCl2. When the assay was carried out, the following ingredients were freshly added: 2 mM DTT; 0.05% BSA; 0.1 mM Na3OV4.
Then incubated the plate at RT for 30 min.
KM ATP and KM gastrin for various enzymes were determined by HTRF/^33P labeling and HTRF methods.
Compound `Cc1cc(N2CCc3nnn([C@@H](C)c4ccc5ncccc5c4)c3C2=O)sn1` [Example 4, (S)-5-(3-methylisothiazol-5-yl)-3-(1-(quinolin-6-yl)ethyl)-6,7-dihydro-3H-[1,2,3]triazolo[4,5-c]pyridin-4(5H)-one] gave a Ki of 8 nM. Then `CC(c1ccc2ncccc2c1)n1nnc2c(=O)[nH]ccc21` (racemic) [Example 10, (R/S)-1-(1-(quinolin-6-yl)ethyl)-1H-[1,2,3]triazolo[4,5-c]pyridin-4(5H)-one], with 461 nM; and `C[C@H](c1ccc2ncccc2c1)n1nnc2ccn(-c3ccc(Cl)c(C(F)(F)F)c3)c(=O)c21` [Example 30, (R)-5-(4-chloro-3-(trifluoromethyl)phenyl)-3-(1-(quinolin-6-yl)ethyl)-3H-[1,2,3]triazolo[4,5-c]pyridin-4(5H)-one], with 473 nM.

Take `C[C@@H](c1ccc2ncccc2c1)n1nnc2ccn(Cc3ccccc3)c(=O)c21` [Example 31, (S)-5-benzyl-3-(1-(quinolin-6-yl)ethyl)-3H-[1,2,3]triazolo[4,5-c]pyridin-4(5H)-one]: the Ki worked out at 1090 nM. Then `C[C@H](c1ccc2ncccc2c1)n1nnc2ccn(Cc3ccccc3)c(=O)c21` [Example 32, (R)-5-benzyl-3-(1-(quinolin-6-yl)ethyl)-3H-[1,2,3]triazolo[4,5-c]pyridin-4(5H)-one], with 1310 nM; and `O=C1c2c(nnn2Cc2ccc3ncccc3c2)CCN1c1ccccc1` [Example 1, 5-phenyl-3-(quinolin-6-ylmethyl)-6,7-dihydro-3H-[1,2,3]triazolo[4,5-c]pyridin-4(5H)-one], with 366 nM; and `C[C@@H](c1ccc2ncccc2c1)n1nnc2ccn(-c3ccc(Cl)c(C(F)(F)F)c3)c(=O)c21` [Example 29, (S)-5-(4-chloro-3-(trifluoromethyl)phenyl)-3-(1-(quinolin-6-yl)ethyl)-3H-[1,2,3]triazolo[4,5-c]pyridin-4(5H)-one], with 3.4 nM. The value for `Cc1cc(N2CCc3nnn([C@H](C)c4ccc5ncccc5c4)c3C2=O)sn1` [Example 5, (R)-5-(3-methylisothiazol-5-yl)-3-(1-(quinolin-6-yl)ethyl)-6,7-dihydro-3H-[1,2,3]triazolo[4,5-c]pyridin-4(5H)-one] was 132 nM.

As to `Cc1cc(N2CCc3nnn(Cc4ccc5ncccc5c4)c3C2=O)sn1` [Example 2, 5-(3-methylisothiazol-5-yl)-3-(quinolin-6-ylmethyl)-6,7-dihydro-3H-[1,2,3]triazolo[4,5-c]pyridin-4(5H)-one], the affinity corresponds to a Ki of 12 nM.

As usually defined, the Ki is a measure of affinity in units of concentration, obtained from inhibition or displacement. A high value points to weaker binding.
